Assay results reported in patent US5770573A, “CS-1 peptidomimetics, compositions and methods of using the same” (Cytel Corporation, priority 1995, dated 1998).
Square brackets hold non-standard residues; d marks the D form. Peptide text beside a SMILES is read from it. * marks the point of attachment. PhAc = O=C(Cc1ccccc1)*

Columns and labels:
[1] = test system: rabbit cardiac allograft coronary arteries; assay: Rabbit cardiac allograft model; assay type: in vivo; on Expression on Coronary Arteries: ICAM-1: key: -: negative; ±: minimal; +: little; ++: moderately abundant; +++: very abundant; on Expression on Coronary Arteries: Macrophages: key: -: negative; ±: minimal; +: little; ++: moderately abundant; +++: very abundant; on Expression on Coronary Arteries: T cells: key: -: negative; ±: minimal; +: little; ++: moderately abundant; +++: very abundant; on Expression on Coronary Arteries: Total Fibronectin: key: -: negative; ±: minimal; +: little; ++: moderately abundant; +++: very abundant
Description: New Zealand white rabbit SPF hearts were allografted into the necks of similar rabbits to assay a graft-vs-host immunorejection model and the affect of a contemplated compound on that immunoinflammatory response.
Experimental animal model New Zealand white female rabbits (Charles River Lab., Saint Laurent, Quebec), between 3.5 and 4 kg underwent heterotopic cardiac transplant following an experimental protocol previously described [Alonso et al., Am. J. Pathol., 87:415-442 (1977); Clausell et al., Circulation, 89:2768-2779 (1994)]. The animals were unselected to favor an HLA-mismatch, the host rabbits were Pasteurella-free and the donors, outbred animals. Both host and donor rabbits were fed Purina 5321-0.5 percent cholesterol diet (Research Diets Inc., New Brunswick, N.J.), a strategy that has proven useful in accelerating the process of allograft arteriopathy [Alonso et al., Am. J. Pathol., 87:415-442 (1977)]. The diet was commenced four days prior to the transplant and continued in the recipient of the transplant until the completion of the experimental period.
The technique of heterotopic cardiac transplantation has been previously described [Clausell et al., Circulation, 89:2768-2779 (1994)]. Briefly, a vertical incision was performed in the anterior aspect of the neck of the recipient rabbit and the left common carotid artery and the ipsilateral external jugular vein were isolated. The cardiac allograft was placed in the neck by anastomosing the aorta end-to-side to the recipient's carotid artery and the pulmonary end-to-side to the recipient's external jugular vein, following a total period of ischemia for the donor hearts of approximately 30 minutes. Postoperative care was in compliance with the Principles of Laboratory Animal Care formulated by the Canadian National Society for Medical Research.
Beginning the day of the transplant, the animals were randomized and treated with either scrambled compound (control group) at 1 mg/kg s.c. or the inhibitor compound at 1 mg/kg s.c. The doses of the compounds were empirically extrapolated to the in vivo model based on preliminary in vitro studies, of Table 1. No other immunosuppression therapy was administered. The grafts were monitored daily by palpation and maintained for 7 to 8 days, a previously described endpoint that was associated with myocardial rejection (impaired cardiac contractility) and development of the allograft arteriopathy in this model [Clausell et al., Circulation, 89:2768-2779 (1994)]. A total of fourteen animals were studied in the control (n=7) and treated (n=7) groups.
Preparation of the hearts The animals were sacrificed using a lethal dose of euthanol (480 mg i.v.) (MTC Pharmaceutical, Cambridge, Oreg.), host and donor hearts were removed, and the coronary arteries were perfused with saline through the aorta, followed by light fixation by perfusion with 2 percent paraformaldehyde (Sigma, St, Louis, Mo.). […] Different sections of the hearts were either saved in 10 percent formalin (BDH Inc., Toronto, ON) for light microscopy studies or immediately frozen in O.T.C. Compound Tissue Tek (Miles Inc., Elkart, In.) for specific immunohistochemistry studies.
Three different paraffin-embedded tissue sections from host and donor hearts from both control and treated rabbits were stained by the Movat pentachrome method for light microscopy. Morphometric analysis was performed using a Zeiss microscope attached to a computer-generated video analysis system (Perceptics Inc., NuVision software), as described in Clausell et al., Circulation, 89:2768-2779 (1994). The number of vessels with intimal lesions were counted in all three heart sections from each animal studied and are expressed as a percentage of the total vessel number.
In the host hearts, 999 vessels in the control group and 1054 vessels in the treated group were analyzed. In the donor hearts, 827 vessels in the control group and 617 vessels in the treated group were analyzed. […]

[2] = Loss of potency in PBS containing 10 percent mouse or human serum; conditions: PBS at 7.2-7.4 with 10 percent mouse or human serum; 24 hours

## CC(C)C[C@H](NC(=O)Cc1ccccc1)C(=O)N[C@@H](CC(=O)O)C(=O)N[C@@H](Cc1ccccc1)C(=O)N1CCC[C@@H]1C(N)=O [Compound ID No. 896.52, N-phenylacetyl-Leu-Asp-Phe-D-Pro-NH2] (PhAc-LDF[dP]-NH2)
[1]; 1 mg/kg s.c., 7 to 8 days
  Expression on Coronary Arteries: ICAM-1: ±
  Expression on Coronary Arteries: Macrophages: ±
  Expression on Coronary Arteries: T cells: ±
  Expression on Coronary Arteries: Total Fibronectin: ±
  Expression on Coronary Arteries: VCAM-1: ±
[1]; 1 mg/kg s.c., 7 to 8 days, immunoperoxidase score
  Expression on Coronary Arteries: MHC Class II: ±
[1]; donor hearts, 1 mg/kg s.c.
  Vessel Intimal Thickening: Percent of Vessels: 35%
  Vessel Intimal Thickening: Severity (Percent of Vessel area): 16%
[1]; host heart
  Baseline (rabbit own host heart) of incidence: 12%
  Baseline (rabbit own host heart) of severity: 12%
[2]
  loss of potency in serum: no loss of potency
